In patent US20110092476A1, “Bicycloheteroaryl compounds as P2X7 modulators and uses thereof” (Renovis, Inc., priority 2006, published 2011):
Converted amounts (≈) assume the structure as drawn. Where two headings read alike, the source gives them in different places.

Experiments:
[1] = Half-life in human liver microsomes (HLM); conditions: pH 7.4
Method: Test compounds (1 μM) are incubated with 3.3 mM MgCl2 and 0.78 mg/mL HLM (HL101) in 100 mM potassium phosphate buffer (pH 7.4) at 37° C. on the 96-deep well plate. The reaction mixture is split into two groups, a non-P450 and a P450 group. NADPH is only added to the reaction mixture of the P450 group. An aliquot of samples of P450 group is collected at 0, 10, 30, and 60 min time point, where 0 min time point indicated the time when NADPH is added into the reaction mixture of P450 group. […] Collected aliquots are extracted with acetonitrile solution containing an internal standard. […] The compound concentration in supernatant is measured by LC/MS/MS system.
The half-life value is obtained by plotting the natural logarithm of the peak area ratio of compounds/internal standard versus time. The slope of the line of best fit through the points yields the rate of metabolism (k). This is converted to a half-life value using following equations:

[2] = molecular target: T1, P2X7 receptor (Homo sapiens, UniProt Q99572); experiment: IL-1β release assay in differentiated THP-1 cells stimulated with BzATP (Example 9); assay type: cell-based
T1 construct: host or cells: THP-1 cells differentiated with LPS and IFN-γ
T1 sequence (Q99572 1-595): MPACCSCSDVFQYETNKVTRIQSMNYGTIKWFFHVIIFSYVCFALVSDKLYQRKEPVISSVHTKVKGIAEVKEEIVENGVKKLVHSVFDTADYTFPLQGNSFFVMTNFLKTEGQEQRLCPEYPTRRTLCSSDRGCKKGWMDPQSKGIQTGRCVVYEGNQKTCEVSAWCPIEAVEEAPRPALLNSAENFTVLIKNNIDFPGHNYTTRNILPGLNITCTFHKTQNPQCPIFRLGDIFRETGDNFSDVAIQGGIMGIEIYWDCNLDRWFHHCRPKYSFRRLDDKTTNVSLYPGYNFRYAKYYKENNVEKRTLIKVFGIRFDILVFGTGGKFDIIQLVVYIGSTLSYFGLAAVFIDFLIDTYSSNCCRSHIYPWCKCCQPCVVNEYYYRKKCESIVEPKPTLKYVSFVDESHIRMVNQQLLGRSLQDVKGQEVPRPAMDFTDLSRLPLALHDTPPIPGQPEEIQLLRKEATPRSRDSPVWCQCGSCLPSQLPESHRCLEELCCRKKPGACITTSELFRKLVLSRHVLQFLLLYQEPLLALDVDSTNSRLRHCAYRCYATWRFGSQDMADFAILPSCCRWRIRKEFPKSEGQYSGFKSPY
How it was run: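 THP-1 cells differentiated 16 h with 100 ng/mL LPS and 100 ng/mL IFN-γ, primed 2 h with fresh LPS, pretreated 30 min with compound, then stimulated 45 min with 250 uM BzATP (final). Supernatant IL-1β measured by ELISA; background-adjusted percent inhibition fitted to a four-parameter logistic for IC50.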

[3] = Pharmacokinetic evaluation following intravenous and oral administration in rats (oral bioavailability); assay type: in vivo, rat; conditions: male Sprague-Dawley rats, PO 1 to 5 mg/kg vs IV 1 mg/kg, AUCinf dose-normalized
Method: Male Sprague-Dawley rats are acclimatized for at least 24 hours prior to experiment initiation. During acclimation period, all animals receive food and water ad libitum. However, food but not water is removed from the animal's cages at least 12 hours before initiation of the experiment. During the first 3 hours of experimentation, the animals receive only water ad libitum. At least three animals each are tested for intravenous and oral dosage. For intravenous formulation, compounds were dissolved (0.25 to 1 mg/mL) in a mixture of 3% dimethyl sulfoxide, 40% PEG 400 and the rest percentage of 40% Captisol in water (w/v). The animals are weighed before dosing. The determined body weight is used to calculate the dose volume for each animal.
Dose volume (mL/kg)=1 mg/kg/formulation concentration (mg/mL)
In instances where the formulation concentrations were less than 0.5 mg/mL, the dosing volume is about 2 mL/kg.
PO rats are typically dosed through oral gavage following the same dose volume formula as IV to achieve a dose level of 1 to 5 mg/kg. […] About 250 uL of blood is obtained at each time point from the animal. Equal volumes of 0.9% normal saline are replaced to prevent dehydration. The whole blood samples are maintained on ice until centrifugation. Blood samples are then centrifuged at 14,000 rpm for 10 minutes at 4° C. and the upper plasma layer transferred into a clean vial and stored at −80° C. The resulting plasma samples are then analyzed by liquid chromatography-tandem mass spectrometry. Following the measurement of plasma samples and dosing solutions, plasma concentration-time curve is plotted. Plasma exposure is calculated as the area under the concentration-time curve extrapolated to time infinite (AUinf). The AUCinf is averaged and the oral bioavailability (% F) for individual animal is calculated as:
AUCinf (PO)/AUCinf (IV), normalized to their respective dose levels. The % F is reported as the mean % F of all animals dosed orally with the compound of the invention at the specified level (see Table 4 below).
For the purpose of Table 4, oral bioavailability of each compound is expressed as follows: […]

[4] = Determination of aqueous (kinetic) solubility; assay type: physicochemical; conditions: aqueous buffer, kinetic from dmso stock, buffer pH 7.4
Method: The mixture was vortexed for 1 hour and equilibrated overnight at room temperature. The mixture was filtered through a saturated filter and the filtrate was analyzed by LC/MS/MS.
For the purpose of Table 5, solubility of each compound is expressed as follows: […]

[5] = 0.3 μM compound, differentiated THP-1 cells, BzATP 250 uM, "+" symbols, read-out: IL-1β % Inhib. @ 0.3 or 0.1 uM
[6] = 0.3 μM compound (symbols +), differentiated THP-1 cells, BzATP 250 uM, read-out: IL-1β % Inhib. @ 0.3 or 0.1 uM

For `C[C@@H](C(N)=O)n1ccc2c(NC(=O)Cc3ccc(Cl)c(C(F)(F)F)c3)cccc2c1=O` [Compound 353], the half-life at 1 μM [1] was 60.6 min, the inhibition at 0.3 µM [2, 5] was over 76% and the “Oral Bioavailability F (%)” value [3] was “+ (0-25% F)”. It also gave a solubility [4] of under 25 µM.

With `O=C(CCc1cc(C(F)(F)F)ccc1C(F)(F)F)Nc1cccc2c(=O)n(CCO)ccc12` [Compound 62] the half-life at 1 μM [1] was 22.2 min, the inhibition at 0.3 µM [2, 6] was over 76% and the “Oral Bioavailability F (%)” value [3] was “+ (0-25% F)”. It also gave a solubility [4] of under 25 µM.

In the case of `CC(C(=O)Nc1cccc2c(=O)n([C@H](C)C(N)=O)ccc12)c1ccc(Cl)c(Cl)c1` (stereo partly shown) [Compound 254], the half-life at 1 μM [1] is reported as 87.6 min, the inhibition at 0.3 µM [2, 5] is reported as over 76% and the “Oral Bioavailability F (%)” value [3] is reported as “+ (0-25% F)”. The solubility [4] was 26 to 50 µM (≈ 11.2 to 21.6 µg/mL).

With `C[C@H](C(N)=O)n1ccc2c(NC(=O)Cc3ccc(C(F)(F)F)cc3)c(Cl)ccc2c1=O` [Compound 316, (R)-2-{6-Chloro-1-oxo-5-[2-(4-trifluoromethyl-phenyl)-acetylamino]-1H-isoquinolin-2-yl}-propionamide] the half-life at 1 μM [1] was 195 min, the inhibition at 0.3 µM ([2]; THP-1, read-out: IL-1β % Inhib. @ 0.3 or 0.1 uM) was over 76% and the “Oral Bioavailability F (%)” value [3] was “++ (26-50% F)”. The solubility [4] was under 25 µM.

In the case of `O=C(Cc1ccc(Cl)cc1)Nc1cccc2c(=O)n(CCO)ccc12` [Compound 4], the half-life at 1 μM [1] is reported as 118 min, the inhibition at 0.3 µM [2, 6] is reported as 26 to 50% and the “Oral Bioavailability F (%)” value [3] is reported as “++++ (>75% F)”.

For `C[C@H](CO)n1ccc2c(NC(=O)Cc3ccc(C(F)(F)F)c(F)c3)c(Cl)ccc2c1=O` [Compound 375, N-[6-Chloro-2-((R)-2-hydroxy-1-methyl-ethyl)-1-oxo-1,2-dihydro-isoquinolin-5-yl]-2-(3-fluoro-4-trifluoromethyl-phenyl)-acetamide], the half-life at 1 μM [1] was 97.8 min, the inhibition at 0.3 µM [2, 5] was over 76% and the “Oral Bioavailability F (%)” value [3] was “++++ (>75% F)”. It also gave a solubility [4] of over 75 µM.

In the case of `C[C@H](CO)n1ccc2c(NC(=O)Cc3ccc(F)c(C(F)(F)F)c3)cccc2c1=O` [Compound 339], the half-life at 1 μM [1] is reported as 55.8 min, the inhibition at 0.3 µM [2, 5] is reported as over 76% and the “Oral Bioavailability F (%)” value [3] is reported as “+++ (51-75% F)”. The solubility [4] was over 75 µM.

With `O=C(Cc1ccc(Cl)c(C(F)(F)F)c1)Nc1cccc2c(=O)n(C(CO)CO)ccc12` [Compound 81, 2-(4-Chloro-3-trifluoromethyl-phenyl)-N-[2-(2-hydroxy-1-hydroxymethyl-ethyl)-1-oxo-1,2-dihydro-isoquinolin-5-yl]-acetamide] the half-life at 1 μM [1] was 43.2 min, the inhibition at 0.3 µM [2, 6] was over 76% and the “Oral Bioavailability F (%)” value [3] was “+ (0-25% F)”. The solubility [4] was over 75 µM.

In the case of `C[C@H](C(N)=O)n1ccc2c(NC(=O)Cc3ccc(Cl)cc3)cccc2c1=O` [Compound 256], the half-life at 1 μM [1] is reported as 77.4 min, the inhibition at 0.3 µM [2, 5] is reported as over 76% and the “Oral Bioavailability F (%)” value [3] is reported as “+ (0-25% F)”. For the same compound, the solubility [4] was under 25 µM.

With `C[C@H](CO)n1ccc2c(NC(=O)Cc3ccc(C(F)(F)F)cc3)c(Cl)ccc2c1=O` [Compound 364] the half-life at 1 μM [1] was 189 min, the inhibition at 0.3 µM [2, 5] was over 76% and the “Oral Bioavailability F (%)” value [3] was “++++ (>75% F)”.

For `C[C@H](CO)n1ccc2c(NC(=O)Cc3cccc(C(F)(F)F)c3F)cccc2c1=O` [Compound 324], the half-life at 1 μM [1] was 42 min, the inhibition at 0.3 µM [2, 5] was over 76% and the “Oral Bioavailability F (%)” value [3] was “++ (26-50% F)”. The solubility [4] was over 75 µM.

For `O=C(Cc1ccc(Cl)c(Cl)c1)Nc1cccc2c(=O)n(CCO)ccc12` [Compound 8], the half-life at 1 μM [1] was 84.6 min, the inhibition at 0.3 µM [2, 6] was over 76% and the “Oral Bioavailability F (%)” value [3] was “+ (0-25% F)”.

For `C[C@@H](C(N)=O)n1ccc2c(NC(=O)Cc3ccc(C(F)(F)F)cc3)cccc2c1=O` [Compound 351], the half-life at 1 μM [1] was 142 min, the inhibition at 0.3 µM [2, 5] was over 76% and the “Oral Bioavailability F (%)” value [3] was “+ (0-25% F)”. It also gave a solubility [4] of under 25 µM.

With `C[C@H](CO)n1ccc2c(NC(=O)Cc3ccc(C(F)(F)F)c(F)c3)cccc2c1=O` [Compound 335] the half-life at 1 μM [1] was 55.8 min, the inhibition at 0.3 µM [2, 5] was over 76% and the “Oral Bioavailability F (%)” value [3] was “++ (26-50% F)”. It also gave a solubility [4] of over 75 µM.

With `Cc1ccc2c(=O)n(CCO)ccc2c1NC(=O)Cc1ccc(C(F)(F)F)c(F)c1` [Compound 400] the half-life at 1 μM [1] was 224 min, the inhibition at 0.3 µM ([2]; differentiated THP-1 cells, BzATP 250 uM, "+" symbols = compound at 0.3 μM, read-out: IL-1β % Inhib. @ 0.3 or 0.1 uM) was over 76% and the “Oral Bioavailability F (%)” value [3] was “++ (26-50% F)”. The solubility [4] was over 75 µM.

For `C[C@H](C(=O)Nc1cccc2c(=O)n([C@@H](C)C(N)=O)ccc12)c1ccc(Cl)cc1` [Compound 265], the half-life at 1 μM [1] was 58.2 min, the inhibition at 0.3 µM [2, 5] was over 76% and the “Oral Bioavailability F (%)” value [3] was “++ (26-50% F)”. It also gave a solubility [4] of 26 to 50 µM (≈ 10.3 to 19.9 µg/mL).

With `C[C@H](CO)n1ccc2c(NC(=O)Cc3ccc(Cl)c(F)c3)c(Cl)ccc2c1=O` [Compound 382] the half-life at 1 μM [1] was 80.4 min, the inhibition at 0.3 µM [2, 5] was over 76% and the “Oral Bioavailability F (%)” value [3] was “+++ (51-75% F)”.

In the case of `CC(C)(CO)n1ccc2c(NC(=O)Cc3ccc(Cl)c(C(F)(F)F)c3)cccc2c1=O` [Compound 369, 2-(4-Chloro-3-trifluoromethyl-phenyl)-N-[2-(2-hydroxy-1,1-dimethyl-ethyl)-1-oxo-1,2-dihydro-isoquinolin-5-yl]-acetamide], the half-life at 1 μM [1] is reported as 33 min, the inhibition at 0.3 µM [2, 5] is reported as over 76% and the “Oral Bioavailability F (%)” value [3] is reported as “+ (0-25% F)”.

In the case of `C[C@H](C(N)=O)n1ccc2c(NC(=O)Cc3cccc(C(F)(F)F)c3F)cccc2c1=O` [Compound 285], the half-life at 1 μM [1] is reported as 74.4 min, the inhibition at 0.3 µM [2, 5] is reported as over 76% and the “Oral Bioavailability F (%)” value [3] is reported as “++ (26-50% F)”.

For `C[C@H](C(N)=O)n1ccc2c(NC(=O)Cc3ccc(Cl)cc3F)cccc2c1=O` [Compound 290], the half-life at 1 μM [1] was 98.4 min, the inhibition at 0.3 µM [2, 5] was over 76% and the “Oral Bioavailability F (%)” value [3] was “+ (0-25% F)”.

For `C[C@H](C(N)=O)n1ccc2c(NC(=O)Cc3cccc(C(F)(F)F)c3F)c(Cl)ccc2c1=O` [Compound 342], the half-life at 1 μM [1] was 69.6 min, the inhibition at 0.3 µM [2, 5] was over 76% and the “Oral Bioavailability F (%)” value [3] was “+ (0-25% F)”.

For `CC(C(=O)Nc1cccc2c(=O)n([C@H](C)C(N)=O)ccc12)c1ccc(Cl)cc1` (stereo partly shown) [Compound 247], the half-life at 1 μM [1] was 127 min, the inhibition at 0.3 µM [2, 5] was over 76% and the “Oral Bioavailability F (%)” value [3] was “++ (26-50% F)”.

In the case of `C[C@H](C(N)=O)n1ccc2c(NC(=O)Cc3ccc(Cl)c(C(F)(F)F)c3)cccc2c1=O` [Compound 238, (R)-2-{5-[2-(4-Chloro-3-trifluoromethyl-phenyl)-acetylamino]-1-oxo-1H-isoquinolin-2-yl}-propionamide], the half-life at 1 μM [1] is reported as 95.4 min, the inhibition at 0.3 µM [2, 5] is reported as over 76% and the “Oral Bioavailability F (%)” value [3] is reported as “+ (0-25% F)”.

With `C[C@H](CO)n1ccc2c(NC(=O)Cc3ccc(Cl)c(C(F)(F)F)c3)cccc2c1=O` [Compound 362] the half-life at 1 μM [1] was 58.2 min, the inhibition at 0.3 µM [2, 5] was over 76% and the “Oral Bioavailability F (%)” value [3] was “++ (26-50% F)”.

For `C[C@@H](C(N)=O)n1ccc2c(NC(=O)Cc3ccc(Cl)c(Cl)c3)cccc2c1=O` [Compound 236, (S)-2-{5-[2-(3,4-Dichloro-phenyl)-acetylamino]-1-oxo-1H-isoquinolin-2-yl}-propionamide], the half-life at 1 μM [1] was 58.2 min, the inhibition at 0.3 µM [2, 5] was over 76% and the “Oral Bioavailability F (%)” value [3] was “+ (0-25% F)”.

For `C[C@H](CO)n1ccc2c(NC(=O)Cc3ccc(C(F)(F)F)cc3)cccc2c1=O` [Compound 319], the half-life at 1 μM [1] was 73.2 min, the inhibition at 0.3 µM [2, 5] was over 76% and the “Oral Bioavailability F (%)” value [3] was “+++ (51-75% F)”.
